Reference: patent EP1751175B1, “INTERLEUKIN-1 RECEPTOR ANTAGONISTS, COMPOSITIONS, AND METHODS OF TREATMENT” (VALORISATION-RECHERCHE, Société en Commandite, priority 2004, dated 2005)
Where a SMILES comes first, the peptide text is derived from it. Where no end group is shown, it is not given here. [ ]: non-standard residue; d: D form.

Experiments:
rats = assay: TNBS-induced inflammatory bowel disease model in rats, 48 h: MPO activity, macroscopic score, histologic score (Table 3: 1 no injury to 5 marked denudation); type: in vivo
Method: Colon inflammation was induced by intra-rectal/colon administration of the hapten trinitrobenzene sulphonic acid (TNBS) as described in Example 4. Two hours prior to TNBS administration, peptides, peptidomimetics or 0.9% saline were administered intravenously (iv) via the caudal vein (various concentrations of mg/kg/d) (total volume of 0.3ml). […] A third group (control) was not injected with TNBS. For intermittent administration, fifteen minutes after TNBS administration, 101.10 (0.25-1 mg/kg), 101.107 (0.2 mg/kg), 101.113 (0.05-1 mg/kg) were administered by intermittent intraperitoneal injection (ip). Also, these IL-1R antagonists were given twice a day (BID); Remicade® (anti-TNFα) (10 mg/kg) and dexamethasone (0.75 mg/kg) were administered intraperitoneally but only once a day (qd). The intrarectal administration (ir) of 101.10, 101.113 (1 and 2.5 mg/kg), and 5-ASA (50 mg/kg) was done one hour after TNBS administration, and twice a day, except for 5-ASA which is once a day. Finally, 101.10 (1-5 mg/kg) was also administered orally by gavage (po), twice a day. Forty-eight hours after administration of TNBS, rats were killed by CO2 inhalation. Colon was removed and assessed macroscopically (adhesions, ulcerations, discoloration and bleeding) and histologically (neutrophil infiltration, epithelial injury, crypt distortion and ulcerations). One to seven animals per group were studied, according to treatments. Myeloperoxidase (MPO) activity was measured on tissue lysates.
TABLE 3: Histological Injury Scoring System

TF-1 cells = molecular target: T1, TF-1 cells (Homo sapiens, UniProt P14778+Q9NPH3); assay: IL-1ß-induced TF-1 proliferation; type: cell-based; settings: Table 5; for Emax: TF-1
T1 sequence (P14778 18-569): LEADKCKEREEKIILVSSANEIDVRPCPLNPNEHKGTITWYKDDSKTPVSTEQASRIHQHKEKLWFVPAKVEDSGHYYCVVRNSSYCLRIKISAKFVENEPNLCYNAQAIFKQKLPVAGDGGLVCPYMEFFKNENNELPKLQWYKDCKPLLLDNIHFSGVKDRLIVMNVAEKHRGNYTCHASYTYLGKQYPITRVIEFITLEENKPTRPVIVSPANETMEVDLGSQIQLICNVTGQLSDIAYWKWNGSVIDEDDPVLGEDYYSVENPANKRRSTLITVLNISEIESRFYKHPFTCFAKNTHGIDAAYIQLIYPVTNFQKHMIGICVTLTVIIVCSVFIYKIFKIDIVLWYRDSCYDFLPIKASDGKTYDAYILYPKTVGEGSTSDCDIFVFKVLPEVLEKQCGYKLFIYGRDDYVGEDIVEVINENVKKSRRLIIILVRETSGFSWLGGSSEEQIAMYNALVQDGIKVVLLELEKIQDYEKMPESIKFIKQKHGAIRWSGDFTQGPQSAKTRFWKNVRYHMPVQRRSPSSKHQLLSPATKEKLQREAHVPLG
T1 sequence (Q9NPH3 21-570): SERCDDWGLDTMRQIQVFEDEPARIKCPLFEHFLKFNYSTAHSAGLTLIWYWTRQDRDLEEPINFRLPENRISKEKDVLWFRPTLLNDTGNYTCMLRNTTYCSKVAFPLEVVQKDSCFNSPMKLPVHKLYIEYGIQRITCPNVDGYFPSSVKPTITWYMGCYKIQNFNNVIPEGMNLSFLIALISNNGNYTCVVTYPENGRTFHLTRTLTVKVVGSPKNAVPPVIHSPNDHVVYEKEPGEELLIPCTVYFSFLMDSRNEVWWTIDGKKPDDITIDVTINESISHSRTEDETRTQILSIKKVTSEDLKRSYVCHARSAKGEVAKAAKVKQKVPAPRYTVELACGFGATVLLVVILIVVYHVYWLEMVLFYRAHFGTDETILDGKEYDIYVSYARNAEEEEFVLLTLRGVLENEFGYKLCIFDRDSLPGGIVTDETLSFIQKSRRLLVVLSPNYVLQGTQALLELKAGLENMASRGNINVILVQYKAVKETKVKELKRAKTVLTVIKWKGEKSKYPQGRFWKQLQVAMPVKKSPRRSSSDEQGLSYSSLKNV

piglet pial vessels = test system: piglet pial vessels; design: species or system Yorkshire piglets
Method: Ex vivo vasomotor response on brain vessels was performed as described (Li et al., 1996; Hou et al., 2000; Hou et al., 2001; Hou et al., 2003). Brains were removed from Yorkshire piglets. Slices of cortex exposing the pial vessels were pinned to a wax base of a 20 ml bath containing Krebs buffer (pH 7.4) equilibrated with 95% O2, 5% CO2 and maintained at 37°C. Microvessels were visualized and recorded using a video camera mounted on a dissecting microscope. Vascular diameter was measured using a digital image analyzer. Vascular diameter was recorded before and after topical application of pre-constricting agent, U46619 (10^-7 M). After stabilization of preparation, the ligand (IL-1β, 75 ng/ml) was added until stable vasodilation was detected. Peptides were subsequently added at different concentrations from 10^-10 to 10^-5 M. Reversal of vasodilatation was visualized and measured as previously described (Hou, et al. 2000; Hou et al. 2001; Hou et al. 2003); triplicate measurements were conducted on 2 animals.

[1] = test system: IL-1 ß-induced proliferation and PGE2 synthesis; assay: Structure vs activity summary of Table 4 (proliferation and PGE2 synthesis, not separated); type: cell-based; settings: Table 4, derivatives of TTI-101.107
[2] = intrarectal administration, dose 50.0-qd mg/kg/d
[3] = intermittent injection (ip), dose 0.75 - qd mg/kg/d

| Compound | Emax (TF-1 cells) | activity compared with 101.113, in words (TF-1 cells) | other results |
| --- | --- | --- | --- |
| Nc1ccc(O)c(C(=O)O)c1 [5-ASA] |  |  | MPO (% of TNBS+Saline) (rats; [2]): 49 % of TNBS+Saline; histologic evaluation (median score) (rats; [2]): 3.3; macroscopic (median score) (rats; [2]): 1.5 |
| CC(C)C[C@@H](NC(=O)[C@@H](CCC(=O)O)NC(=O)[C@H]1CCCN1C(=O)[C@H](NC(=O)[C@@H](Cc1ccc(O)cc1)NC(=O)[C@H](N)CCCNC(=N)N)[C@H](C)O)C(=O)O [API-101.113, RYTPEL] | 70% |  |  |
| CC(C)C[C@@H](NC(=O)[C@@H](CCC(=O)O)NC(=O)[C@H]1CCCN1C(=O)[C@H](NC(=O)[C@@H](Cc1c[nH]c2ccccc12)NC(=O)[C@H](N)CCCNC(=N)N)[C@H](C)O)C(N)=O [API-101.128, RWTPEL] |  | relatively decreased |  |
| CC(C)[C@@H](NC(=O)[C@@H](CCC(=O)O)NC(=O)[C@H]1CCCN1C(=O)[C@H](NC(=O)[C@@H](Cc1ccc(O)cc1)NC(=O)[C@H](N)CCCNC(=N)N)[C@H](C)O)C(N)=O [API-101.129, RYTPEV] | 50% |  |  |
| CC(C)C[C@@H](NC(=O)[C@@H](CCC(=O)O)NC(=O)[C@H]1CCCN1C(=O)[C@H](NC(=O)[C@@H](Cc1ccccc1)NC(=O)[C@H](N)CCCNC(=N)N)[C@H](C)O)C(N)=O [API-101.132, RFTPEL] (HELM PEPTIDE1{[dR].[dF].[dT].[dP].[dE].[dL].[am]}$$$$V2.0; N-terminus and C-terminus assumed) | 35% | relatively decreased |  |
| CC(C)C[C@@H](NC(=O)[C@@H](CCC(=O)O)NC(=O)[C@H]1CCCN1C(=O)[C@H](NC(=O)[C@@H](Cc1ccc(O)cc1)NC(=O)[C@H](N)CCCNC(N)=O)[C@H](C)O)C(N)=O [API-101.134, XYTPEL (X=Citrulline)] | 10% |  |  |
| CC(C)C[C@@H](NC(=O)[C@@H](CCC(=O)O)NC(=O)[C@H]1CCCN1C(=O)[C@H](NC(=O)[C@@H](Cc1ccc(O)cc1)NC(=O)[C@@H](N)CCCNC(=N)N)[C@H](C)O)C(N)=O [API-101.135, *RYTPEL] | 63% |  |  |
| CC(C)C[C@@H](NC(=O)[C@@H](CCC(=O)O)NC(=O)[C@H](NC(=O)[C@H](NC(=O)[C@@H](Cc1ccc(O)cc1)NC(=O)[C@@H](CCCNC(=N)N)NC(=O)[C@H]1CCCN1C(=O)[C@@H](C)N)[C@H](C)O)C(C)C)C(=O)N[C@H](C)C(=O)O [API-101] |  |  | IC50 (piglet pial vessels): 0.182 µM |
| C[C@@H]1C[C@H]2[C@@H]3CCC4=CC(=O)C=C[C@]4(C)[C@@]3(F)[C@@H](O)C[C@]2(C)[C@@]1(O)C(=O)CO [Dexamethasone, dexamethasone] |  |  | MPO (% of TNBS+Saline) (rats; [3]): 60 % of TNBS+Saline; histologic evaluation (median score) (rats; [3]): 3; macroscopic (median score) (rats; [3]): 0.87 |
| KYTPEL [API-101.133] |  | little or no activity | Emax (%) (TF-1 cells): <10% |
| RFVPELA [API-101.127] |  | completely abolished the activity |  |
| XRYTPELA (X=Acetyl) (Ac-[dR][dY][dT][dP][dE][dL][dA]) [API-101.121] |  |  | activity of the peptide, in words [1]: completely lost |
| XYTPEL (X=Ornithine) [API-101.126] |  | little or no activity | Emax (%) (TF-1 cells): 0% |
